The values below come from ChEMBL document CHEMBL1772953, “Lupinacidin C, an inhibitor of tumor cell invasion from Micromonospora lupini” (J Nat Prod, 2011).

Series [1] can be described thus: Antiinvasive activity against mouse 26-L5 cells after 6 to 8 hrs using hematoxylin/eosin dye by Matrigel assay. The format is functional, cell-based.
Series [2] is described as follows: Cytotoxicity against mouse 26-L5 cells at <0.3 ug/ml after 24 hrs. Type of series: cell-based.

The IC50 is the point on the concentration scale where inhibition reaches its midpoint. In series [1], `CCCCc1c(O)c(C)c(O)c2c1C(=O)c1c(O)cccc1C2=O` [LUPINACIDIN B] came in with a half-inhibitory concentration (IC50) of 920 nM.
In series [1], `Cc1c(O)c(CCC(C)C)c2c(c1O)C(=O)c1cccc(O)c1C2=O` [LUPINACIDIN A] yielded an IC50 of 210 nM.
Regarding `CC[C@H](C)CCc1c(O)c(C)c(O)c2c1C(=O)c1c(O)cccc1C2=O` [LUPINACIDIN C], the Activity entry in series [2] is given as “Non-toxic”. The compound further showed an IC50 in series [1] of 540 nM.
